Measured values: US10221163B2 (priority 2015, dated 2019)
Read-outs that look alike come from different tables or passages of the source.

Columns and labels:
IMP-1 = IMP-1 (Serratia marcescens, UniProt P52699); experiment: biochemical; assay type: biochemical; conditions: CCF2-FA substrate, 2 pM enzyme, 2 hours at 25° C.
In short: (§1)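 Inhibitor was mixed with the metallo-β-lactamase and CCF2-FA. After 2 hours at 25° C, fluorescence of the coumarin–fluorescein cephalosporin substrate was read. IC50 was calculated with a 4-parameter fit.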

NDM-1 = NDM-1 (Klebsiella pneumoniae, UniProt C7C422); experiment: biochemical; assay type: biochemical; conditions: fluorescence assay, CCF2-FA substrate, 1 pM enzyme, 2 hours at 25° C.; read-out: NDM-1 IC50
In short: as §1

VIM-1 = VIM-1 (Pseudomonas aeruginosa (strain ATCC 15692 / DSM 22644 / CIP 104116 / JCM 14847 / LMG 12228 / 1C / PRS 101 / PAO1), UniProt A0A0F7KYQ8); experiment: biochemical; conditions: CCF2-FA substrate, 30 pM enzyme, 2 hours at 25° C.
In short: as §1

[1] = test system: Escherichia coli expressing NDM-1 (CLB30005, CLB30016); assay type: cell-based; conditions: with imipenem 1 μg/ml; for Escherichia coli MITC95: NDM-1 strain
In short: (§2)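 Imipenem 1 μg/ml + inhibitor; MBL-expressing clinical strains in 1.1×CAMHB, inoculum from saline suspension diluted 1:100; 35° C, 22–24 h; absorbance read-out.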

[2] = test system: Klebsiella pneumoniae expressing VIM-1 (IHMA599644); assay type: cell-based; conditions: for Klebsiella pneumoniae MITC95: VIM-1 strain IHMA599644, with imipenem 1 μg/ml; for Klebsiella pneumoniae expressing VIM-1 (IHMA599644) MITC95: with imipenem 1 μg/ml
In short: as §2

[3] = test system: Serratia marcescens expressing IMP-1 (CL5741); assay type: cell-based; conditions: for Serratia marcescens MITC95: IMP-1 strain CL5741, with imipenem 1 μg/ml; for Serratia marcescens expressing IMP-1 (CL5741) MITC95: with imipenem 1 μg/ml
In short: as §2

[4] = test system: Pseudomonas aeruginosa efflux+ (MB9798), IMP-1; assay type: cell-based; parameters: Concentration of metallo-β-lactamase inhibitor which restores susceptibility of efflux + (MB9798) strain to imipenem: unit not given here; conditions: C, D serine β-lactamase inhibitor closely related to relebactam; for Concentration of metallo-β-lactamase inhibitor which restores susceptibility of efflux + (MB9798) strain to imipenem: imipenem at 2 μg/mL, in the presence of a class A; for P. aeruginosa expressing IMP-1, efflux + (MB9798) MITC95: concentration restoring susceptibility to imipenem at 2 μg/mL in the presence of a class A
In short: (§3)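 Microbroth MIC tests in PAO1-background strains with fixed imipenem and/or ceftazidime, usually at the CLSI breakpoint, plus fixed class A/C β-lactamase inhibitor against AmpC. MBL inhibitor titrated; concentration restoring susceptibility recorded and compared as fold difference between efflux+ MB9798 and efflux− MB9799.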

[5] = test system: Pseudomonas aeruginosa efflux− (MB9799), IMP-1; assay type: cell-based; conditions: C, D serine β-lactamase inhibitor closely related to relebactam; for Concentration of metallo-β-lactamase inhibitor which restores susceptibility of efflux − (MB9799) strain to imipenem: imipenem at 2 μg/mL, in the presence of a class A; for P. aeruginosa expressing IMP-1, efflux − (MB9799) MITC95: concentration restoring susceptibility to imipenem at 2 μg/mL in the presence of a class A
In short: as §3

[6] = test system: Pseudomonas aeruginosa MB9798 vs MB9799
In short: as §3

[7] = fluorescence assay, read-out: IMP-1 IC50
[8] = fluorescence assay, read-out: VIM-1 IC50
[9] = fold difference between efflux+ (MB9798) and efflux− (MB9799) strains, imipenem at 2 μg/mL
[10] = ratio MITC95 PA_9798/MITC95 PA_9799
[11] = 95% inhibition of bacterial growth

Sequence of IMP-1 (P52699 whole entry, looked up, species assumed): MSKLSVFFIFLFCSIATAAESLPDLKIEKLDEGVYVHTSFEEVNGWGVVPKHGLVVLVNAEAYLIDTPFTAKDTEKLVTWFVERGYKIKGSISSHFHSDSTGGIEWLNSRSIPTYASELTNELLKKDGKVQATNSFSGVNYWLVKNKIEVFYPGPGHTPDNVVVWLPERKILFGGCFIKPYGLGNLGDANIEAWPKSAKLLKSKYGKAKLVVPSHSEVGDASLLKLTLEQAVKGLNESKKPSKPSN
Sequence of NDM-1 (C7C422 whole entry, looked up, species assumed): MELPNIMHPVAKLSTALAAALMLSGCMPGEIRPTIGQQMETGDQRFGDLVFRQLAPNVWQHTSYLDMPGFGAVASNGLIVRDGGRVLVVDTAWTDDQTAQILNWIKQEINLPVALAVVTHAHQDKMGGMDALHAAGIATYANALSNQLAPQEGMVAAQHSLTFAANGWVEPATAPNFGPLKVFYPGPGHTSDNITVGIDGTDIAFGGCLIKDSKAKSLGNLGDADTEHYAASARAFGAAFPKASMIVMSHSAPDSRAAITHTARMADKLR

| SMILES | IC50 (IMP-1; [7]) | IC50 (NDM-1) | IC50 (VIM-1; [8]) | Escherichia coli MITC95 ([1]; 95% inhibition of growth) | Klebsiella pneumoniae MITC95 ([2]; 95% inhibition of growth) | Serratia marcescens MITC95 ([3]; 95% inhibition of growth) | Concentration of metallo-β-lactamase inhibitor which restores susceptibility of efflux + (MB9798) strain to imipenem [4] | Concentration of metallo-β-lactamase inhibitor which restores susceptibility of efflux − (MB9799) strain to imipenem [5] | Efflux ratio [6, 9] | IC50 (VIM-1; VIM-1 IC50, fluorescence assay) | P. aeruginosa expressing IMP-1, efflux + (MB9798) MITC95 [4] | P. aeruginosa expressing IMP-1, efflux − (MB9799) MITC95 [5] | Efflux ratio [6, 10] | IC50 (IMP-1; IMP-1 IC50, fluorescence assay) | Escherichia coli expressing NDM-1 (CLB30016) MITC95 [1, 11] | Klebsiella pneumoniae expressing VIM-1 (IHMA599644) MITC95 [2, 11] | Serratia marcescens expressing IMP-1 (CL5741) MITC95 [3, 11] | Escherichia coli MITC95 [1, 11] | Klebsiella pneumoniae MITC95 [2, 11] | Serratia marcescens MITC95 [3, 11] |
| --- | --- | --- | --- | --- | --- | --- | --- | --- | --- | --- | --- | --- | --- | --- | --- | --- | --- | --- | --- | --- |
| Nc1ccc(-c2ccc(S(=O)(=O)NC[C@@H]3CCNC3)c(S(N)(=O)=O)c2-c2nn[nH]n2)cn1 [Example 491, (R)-4-(6-aminopyridin-3-yl)-N1-(pyrrolidin-3-ylmethyl)-3-(2H-tetrazol-5-yl)benzene-1,2-disulfonamide] | 0.271 nM | 0.0939 nM | 0.132 nM | 0.1953 µM | 1.563 µM | 0.7813 µM | 0.7813 | 0.7813 | 1.00 | – | – | – | – | – | – | – | – | – | – | – |
| NCCNS(=O)(=O)c1ccc(-c2cccc(C(=O)NCC(O)CN)c2)c(-c2nn[nH]n2)c1S(N)(=O)=O (stereo in doubt) [Example 347, (S)—N-(3-amino-2-hydroxypropyl)-4′-(N-(2-aminoethyl)sulfamoyl)-3′-sulfamoyl-2′-(2H-tetrazol-5-yl)[1,1′-biphenyl]-3-carboxamide] | 3.97 nM | 2.04 nM | – | 1.563 µM | 1.563 µM | 1.563 µM | – | – | – | 0.536 nM | 1.563 µM | 0.7813 µM | 2.00 | – | – | – | – | – | – | – |
| Nc1nc2c(-c3ccc(S(=O)(=O)NC[C@H]4CCNC4)c(S(N)(=O)=O)c3-c3nnn[nH]3)cccc2s1 [Example 73, 4-(2-amino-1,3-benzothiazol-4-yl)-N^1-[(3S)-pyrrolidin-3-ylmethyl]-3-(1H-tetrazol-5-yl)benzene-1,2-disulfonamide] | – | 0.0332 nM | – | – | – | – | – | – | – | 0.125 nM | 0.7813 µM | 1.563 µM | 0.50 | 0.16 nM | 1.563 µM | 3.125 µM | 1.563 µM | – | – | – |
| NC[C@@H](CO)NS(=O)(=O)c1ccc(-c2ccnc(N)c2)c(-c2nn[nH]n2)c1S(N)(=O)=O [Example 380, (S)—N1-(1-amino-3-hydroxypropan-2-yl)-4-(2-aminopyridin-4-yl)-3-(2H -tetrazol-5-yl)benzene-1,2-disulfonamide] | 0.544 nM | 0.178 nM | – | 0.4883 µM | 1.563 µM | 0.7813 µM | – | – | – | 0.179 nM | 0.7813 µM | 0.7813 µM | 1.00 | – | – | – | – | – | – | – |
| C[C@@H](CCN)NS(=O)(=O)c1ccc(-c2ccc(N)nc2)c(-c2nn[nH]n2)c1S(N)(=O)=O [Example 499, (S)-N1-(4-aminobutan-2-yl)-4-(6-aminopyridin-3-yl)-3-(1H-tetrazol-5-yl)benzene-1,2-disulfonamide] | 1.02 nM | 0.555 nM | 0.291 nM | – | – | – | 0.7813 | 0.7813 | 1.00 | – | – | – | – | – | – | – | – | 0.7813 µM | 3.125 µM | 1.563 µM |
| NS(=O)(=O)c1c(S(=O)(=O)N[C@@H]2CCNC2)ccc(-c2ccc3nonc3c2)c1-c1nnn[nH]1 [Example 133, (R)-4-(benzo[c][1,2,5]oxadiazol-5-yl)-N1-(pyrrolidin-3-yl)-3-(1H-tetrazol-5-yl)benzene-1,2-disulfonamide] | 0.816 nM | 0.341 nM | 0.118 nM | – | – | – | – | – | – | – | 6.25 µM | 0.7813 µM | 8.00 | – | 0.7813 µM | 1.563 µM | 1.563 µM | – | – | – |
| C[C@H](CN)NS(=O)(=O)c1ccc(-c2cccc3[nH]nnc23)c(-c2nn[nH]n2)c1S(N)(=O)=O [Example 237] | 0.12 nM | 0.0134 nM | 0.0552 nM | – | – | – | – | – | – | – | 0.7813 µM | 1.563 µM | 0.50 | – | 3.125 µM | 1.563 µM | 1.563 µM | – | – | – |
| NCCNS(=O)(=O)c1ccc(-c2ccnc(N)c2)c(-c2nn[nH]n2)c1S(N)(=O)=O [Example 400] | 1.42 nM | 0.598 nM | 0.244 nM | 0.1953 µM | 1.563 µM | 0.3906 µM | 1.563 | 0.7813 | 2.00 | – | – | – | – | – | – | – | – | – | – | – |
| Nc1nc2c(-c3ccc(S(=O)(=O)NC4(CO)CCNC4)c(S(N)(=O)=O)c3-c3nnn[nH]3)cccc2s1 (stereo not drawn) [Example 83, 4-(2-amino-1,3-benzothiazol-4-yl)-N1-[3-(hydroxymethyl)pyrrolidin-3-yl]-3-(1H-tetrazol-5-yl)benzene-1,2-disulfonamide] | 0.261 nM | 0.0483 nM | 0.208 nM | – | – | – | – | – | – | – | 0.7813 µM | 1.563 µM | 0.50 | – | 3.125 µM | 3.125 µM | 3.125 µM | – | – | – |
| Nc1nc2c(-c3ccc(S(=O)(=O)N4CC[S+]([O-])CC4)c(S(N)(=O)=O)c3-c3nnn[nH]3)cccc2s1 [Example 44, 3-(2-amino-1,3-benzothiazol-4-yl)-6-[(1-oxidothiomorpholin-4-yl)sulfonyl]-2-(1H-tetrazol-5-yl)benzenesulfonamide] | 2.22 nM | 0.872 nM | 2.06 nM | – | – | – | – | – | – | – | 12.5 µM | 6.25 µM | 2.00 | – | 25 µM | 25 µM | 6.25 µM | – | – | – |
